Results: patent US20240327459A1, “PEPTIDE FRAGMENTS FOR TREATMENT OF DIABETES” (Follicum AB, priority 2018, published 2024)
Entries after “also recorded” stand apart in the source; their conditions may differ.

What was measured:
INS-1E cells = assay: Insulin secreting capacity after 72 hours of glucotoxic conditions (Examples 19, 22); type: cell-based, rat; details: Example 19, 20 mM glucose 72 hours with peptide, then 16.7 mM glucose 1 h
Description: To investigate the β-cell protective effect of FOL-056, we subjected INS-1E to cytotoxic levels of glucose for 72 hours. Rat INS-1E cells were seeded in 96-well plates (2×10^3 cells/well) in cRPMI medium. Following 72 hours of incubation, the medium was changed to RPMI containing 20 mM glucose with or without FOL-056 or FOL-014 and were cultured at 37° C. during an additional 72 hours to induce glucotoxicity. RPMI containing 5 mM glucose was included as a low glucose control. Following 72 hours, the medium was removed and the INS-1E cells were equilibrated in Krebs-Ringer bicarbonate buffer (KREB), pH 7.4, (supplemented with 10 mM HEPES, 0.1% bovine serum albumin and 2.8 mM glucose) for 2 hours. After equilibration, the buffer was changed and the INS-1E cells were incubated in KREBs containing 16.7 mM glucose […] during 1 h. Immediately after incubation, an aliquot of the buffer was removed and frozen for subsequent assay of insulin content.
To investigate the β-cell protective effect of several novel peptide fragments derived from FOL-005 and FOL-014, INS-1 cells were subjected to cytotoxic levels of glucose for 72 hours. […] In order to correct for the variance between experiments, all values were normalized to, and expressed as percentage of the average value of the high glucose control in the individual experiments. […]

isolated mouse islets = assay: Insulin and glucagon secretion from isolated mouse islets (Example 12); type: cell-based
Description: Twelve-week-old male C57/bl6 mice were euthanized with isoflurane and cervical dislocation. After clamping the hepatic ducts, 3 ml of 0.9 U/ml collagenase P was injected into the bile duct to inflate the pancreas. The pancreas was then removed and digested for 19 min at 37° C. The samples were vigorously shaken to disrupt the tissue. The digest was quickly transferred into ice cold Hank's Balanced Salts Solution with Ca^2+ and Mg^2+. The suspension was allowed to sit for 8 min to allow the islet to sink, and the islets were washed in the same manner four times. The islets were then handpicked and sorted according to size.
Freshly isolated islets were seeded in groups of 5 in a 96-well plate and preincubated for 1 h at 37° C. in a Krebs-Ringer bicarbonate buffer (pH 7.4). The islets were incubated for 1 h at 37° C. in Krebs-Ringer buffered solution supplemented with 0.6 or 6 μM FOL-014 or 100 nM GLP-1 or left unsupplemented for control. Immediately after incubation, the medium was removed for assays of insulin and glucagon using Mercodia's ELISA kits. The effect of FOL-014 on insulin (FIGS. 8A and B) and glucagon (FIGS. 8C and D) secretion from isolated mouse islets was measured in the presence of low glucose (2.8 mM; FIGS. 8A and C) or high glucose (16.7 mM; FIGS. 8B and D) concentrations.

mouse pancreatic islets = assay: Insulin secretion from isolated mouse pancreatic islets (Examples 5 and 7); type: cell-based; details: 60 min
Description: Mouse pancreatic islets were isolated from 8-week old C57BL/6J male mice (Taconic). Mice were sacrificed by an overdose of isoflurane and cervical dislocation. 3 ml of 0.9 U/ml collagenase P was injected into the pancreatic duct to inflate the pancreas. The Pancreas was then removed and collagen digested for 19 min at 37° C. The samples Were vigorously shaken to disrupt the tissue. The digest was transferred into ice cold Hank's Balanced Salt Solution (HBSS) with Ca^2+ and Mg^2+. The suspension was allowed to sit for 10 min to allow the islet to sink, and the islets were washed in fresh HBSS four times. The islets were then hand-picked and sorted according to size. Islets (n=3 per well in a 96 well plate) were pre-incubated in KRB buffer during 10 min 37° C., pH 7.4, supplemented with 10 mM HEPES, 0.1% bovine serum albumin. After pre-incubation, the buffer was changed and islets were incubated at different test conditions in new KRB buffer with 0.1% bovine serum albumin (non-treated ctrl, FOL-005 peptide, or GLP-1) for 60 min at 37° C. Immediately after incubation, an aliquot of the buffer was removed and frozen for subsequent assay of insulin.
Mouse pancreatic islets were isolated from 8-week old C57BL/6J male mice as described under example 5. The islets were then hand-picked and sorted according to size. Islets (n=5 per well in a 96 well plate) were pre-incubated in 200 μl KRB buffer during 10 min 37° C., pH 7.4, supplemented with 10 mM HEPES, 0.1% bovine serum albumin. Following pre-incubation, the buffer was changed and islets were incubated in different test conditions in new KRB buffer with 0.1% bovine serum albumin (non-treated ctrl, FOL-014 peptide, and GLP-1) for 60 min at 37° C. Immediately after incubation, an aliquot of the buffer was removed and frozen for subsequent assay of insulin.

db/db mice = assay: HbA1c in db/db mice after 4 weeks of dosing; type: in vivo, mouse; details: 100 nmol/kg subcutaneously, 5 days per week for 4 weeks, vs PBS control
Description: To investigate the long-term effect of FOL-014 and FOL-056 in diabetic mice, db/db mice were dosed with 100 nmol/kg peptide subcutaneously, 5 days per week for 4 weeks. Control mice were injected with PBS. After 4 weeks of treatment the mice were terminated and 25 μl whole blood was immediately frozen for subsequent HbA1c analysis. (FIG. 21).

[1] = low glucose (2.8 mM), FOL-014 0.6 or 6 μM

Sequence: KPLAEIDSIELSYGIK (MISC_FEATURE - peptide, FOL-014)
- insulin secreting ability after glucotoxic conditions (INS-1E cells): significantly improved the insulin secreting ability of the β-cells as compared with high glucose media alone
- insulin secretion (isolated mouse islets; high glucose (16.7 mM), 600 nM): significantly increased insulin secretion
- insulin secretion (isolated mouse islets; high glucose (16.7 mM), 6 μM): but not 6 μM FOL-014, significantly increased insulin secretion
- glucagon secretion (isolated mouse islets; high glucose (16.7 mM), both concentrations (0.6 and 6 μM)): efficiently reduced glucagon secretion
- glucagon secretion (isolated mouse islets; [1]): reduced glucagon secretion as compared with control and GLP-1
- insulin secretion (isolated mouse islets; [1]): did not increase insulin secretion
- insulin secretion (mouse pancreatic islets; Example 7, 0.6 μM): did not affect insulin secretion; also recorded: had no effect on insulin secretion
- insulin secretion (mouse pancreatic islets; Example 7, 6 μM, vs unstimulated control islets): secreted more insulin compared to unstimulated control islets
- HbA1c (db/db mice): reduce the HbA1c in db/db mice as compared with the untreated control group; also recorded: significantly lower HbA1c
